# Test results taken from patent publication US20120041172A1, “METHOD FOR THE MANUFACTURE OF DEGARELIX” (Polypeptide Laboratories A/S, priority 2009, published 2012).
# Non-standard residues stand in square brackets, D forms with d. Residues, ends and D or L forms follow the SMILES beside them. *: point of attachment. dPhe(4-NHCONH2) = NC(=O)Nc1ccc(C[C@@H](N)C(=O)O)cc1; Dihydroorotyl(S) = O=C1C[C@@H](C(=O)*)NC(=O)N1; dPhe(4-Cl) = N[C@H](Cc1ccc(Cl)cc1)C(=O)O; Phe(4-NH2) = Nc1ccc(C[C@H](N)C(=O)O)cc1; d2Nal = N[C@H](Cc1ccc2ccccc2c1)C(=O)O; Lys(iPr) = CC(C)NCCCC[C@H](N)C(=O)O; d3Pal = N[C@H](Cc1cccnc1)C(=O)O
# Assays:
# [1] = Instability of the hydroorotic moiety under basic conditions (DCHA in wet 2-BuOH); assay type: physicochemical; conditions: 67 mM in wet 2-BuOH with 167 mM (2.5 eq) DCHA, 31° C, after 25 h
# Procedure: The following experiment provided further proof of the instability of the hydrooroic moiety under basic conditions. Z-Ser(tBu)-4Aph(Hor)-D-4Aph(tBu-Cbm)-Leu-OH.DCHA (67 mM) was dissolved in wet 2-BuOH with 167 mM (2.5 eq) DCHA at 31° C. After 25 h, 1.3% of the hydantoin analogue and 0.3% of the hydrolysed intermediate had been formed.
# [2] = Stability of degarelix in DBU/DMF and piperidine/DMF (Fmoc-removal conditions), HPLC; assay type: physicochemical; conditions: 20 h
# Procedure: Stability of degarelix in DBU/DMF and piperidine/DMF. The stability of degarelix was tested under conditions corresponding to those used for removal of the Fmoc-group during SPPS. The hydroorotic group in the side chain of 4Aph(Hor), amino acid residue no. 5 in the sequence of degarelix, is known to be sensitive to base and rearrange to a hydantoinacetyl group. All SPPS procedures known to the inventors had been based on Boc-chemistry.
# Samples of degarelix were dissolved in 20% piperidine/DMF; 2% DBU in DMF, and 2% DBU+5% water in DMF; respectively. The samples were analysed by HPLC after 20 h and the amount of the hydantoin analogue determined.
# If 5% water was present, too (simulating wet DMF), the amount was increased to 7%.
hydantoin analogue formed [1] [%],hydrolysed intermediate formed [1] [%],amount of the hydantoin analogue formed ([2]; 2% DBU + 5% water in DMF (simulating wet DMF)) [%],amount of the hydantoin analogue formed ([2]; 2% DBU in DMF) [%],Compound,formation of the hydantoin analogue ([2]; 20% piperidine in DMF)
1.3,0.3,,,Z-Ser(tBu)-4Aph(Hor)-D-4Aph(tBu-Cbm)-Leu-OH.DCHA,
,,7,1.8,"CC(=O)N[C@H](Cc1ccc2ccccc2c1)C(=O)N[C@H](Cc1ccc(Cl)cc1)C(=O)N[C@H](Cc1cccnc1)C(=O)N[C@@H](CO)C(=O)N[C@@H](Cc1ccc(NC(=O)[C@@H]2CC(=O)NC(=O)N2)cc1)C(=O)N[C@H](Cc1ccc(NC(N)=O)cc1)C(=O)N[C@@H](CC(C)C)C(=O)N[C@@H](CCCCNC(C)C)C(=O)N1CCC[C@H]1C(=O)N[C@H](C)C(N)=O [degarelix, Ac-D-2Nal-D-Phe(4Cl)-D-3 Pal-Ser-4Aph(Hor)-D-4Aph(Cbm)-Leu-ILys-Pro-D-Ala-NH2] (Ac-[d2Nal][dPhe(4-Cl)][d3Pal]S[Phe(4-NH2)](Dihydroorotyl(S))[dPhe(4-NHCONH2)]L[Lys(iPr)]P[dA]-NH2)",did not result in any formation of the hydantoin analogue
